The source made the active and inactive calls. The calls are words filed in the database; no cut-off is given here.
Experiments:
Calf thymus DNA [1] = assay: Binding affinity to calf thymus DNA assessed as DNA spectral changes at 30 uM incubated for 10 mins by circular dichroism method; assay type: nucleic-acid assay; details: Bos taurus
Salmon testes DNA = assay: Binding affinity to salmon sperm […] DNA assessed as DNA intercalation by measuring increase in viscosity at 12 to 60 uM by viscometric method; assay type: nucleic-acid assay; details: Salmonidae
Calf thymus DNA [2] = assay: Binding affinity to calf thymus DNA assessed as hypochromicity at 30 uM incubated for 10 mins by UV-Vis absorption spectroscopic method relative to control; assay type: nucleic-acid assay; details: Bos taurus
[3] = target: DNA topoisomerase 2-alpha (Homo sapiens) (UniProt P11388); assay: Inhibition of recombinant human topoisomerase 2alpha using supercoiled pUC19 plasmid DNA as substrate at 10 uM incubated for 45 mins by ethidium bromide dye based agarose gel electrophoresis method
Albumin [4] = target: T1, Albumin (Bos taurus, UniProt P02769); assay: Binding affinity to bovine serum albumin assessed as hypochromicity at 5 to 40 uM by fluorescence emission spectrum analysis method relative to control; assay type: ADME; details: cattle, isolated protein
[5] = Selectivity index, ratio of CC50 for mouse RAW264.7 cells to ratio of IC50 for human T47D cells; assay type: toxicity; details: RAW264.7 cells and T47D cells, read-out: Ratio CC50/IC50
Calf thymus DNA [6] = assay: Binding affinity to calf thymus DNA assessed as fold change in hyperchromicity at 10 uM by fluorescence emission spectrum analysis relative to control; assay type: nucleic-acid assay; details: Bos taurus
Albumin [7] = target: T1, Albumin; assay: Binding affinity to bovine serum albumin assessed as binding constant incubated for 10 mins by UV-Vis absorption spectroscopic method; assay type: ADME; details: cattle, isolated protein
Albumin [8] = target: T1, Albumin; assay: Binding affinity to bovine serum albumin assessed as hypsochromic shift at 5 to 40 uM by fluorescence emission spectrum analysis method; assay type: ADME; details: cattle, isolated protein
Calf thymus DNA [9] = assay: Binding affinity to calf thymus DNA assessed as binding constant incubated for 10 mins by UV-Vis absorption spectroscopic method; assay type: nucleic-acid assay; details: Bos taurus
Albumin [10] = target: T1, Albumin; assay: Binding affinity to bovine serum albumin assessed as hyperchromicity at 5 to 40 uM incubated for 10 mins by UV-Vis absorption spectroscopic method relative to control; assay type: ADME; details: cattle, isolated protein
Albumin [11] = target: T1, Albumin; assay: Binding affinity to bovine serum albumin assessed as Stem-Volmer quenching constant incubated for 10 mins by fluorescence emission spectrum analysis; assay type: ADME; details: cattle, isolated protein
T47D = assay: Cytotoxicity against human T47D cells assessed as reduction in cell viability incubated for 48 hrs by MTT assay; assay type: functional, cell-based
[12] = Cytotoxicity against mouse RAW264.7 cells assessed as reduction in cell viability incubated for 48 hrs by MTT assay; assay type: cell-based
[13] = Selectivity index, ratio of CC50 for mouse RAW264.7 cells to ratio of IC50 for human MCF7 cells; assay type: toxicity; details: RAW264.7 cells and MCF7 cells, read-out: Ratio CC50/IC50
MCF7 = assay: Cytotoxicity against human MCF7 cells assessed as reduction in cell viability incubated for 48 hrs by MTT assay; assay type: functional, cell-based; details: MCF7, 48 h
Calf thymus DNA [14] = assay: Binding affinity to calf thymus DNA assessed as fold change in hypochromicity at 10 uM by fluorescence emission spectrum analysis relative to control; assay type: nucleic-acid assay; details: Bos taurus
Calf thymus DNA [15] = assay: Binding affinity to calf thymus DNA assessed as hyperchromicity at 30 uM incubated for 10 mins by UV-Vis absorption spectroscopic method relative to control; assay type: nucleic-acid assay; details: Bos taurus
Calf thymus DNA [16] = assay: Binding affinity to calf thymus DNA assessed as hypsochromic shift at 10 uM by fluorescence emission spectrum analysis; assay type: nucleic-acid assay; details: Bos taurus
Calf thymus DNA [17] = assay: Binding affinity to calf thymus DNA assessed as hypsochromic shift at 30 uM incubated for 10 mins by UV-Vis absorption spectroscopic method; assay type: nucleic-acid assay; details: Bos taurus
Calf thymus DNA [18] = assay: Binding affinity to calf thymus DNA assessed as DNA spectral changes by measuring increase in negative band at 245 nm at 30 uM incubated for 10 mins by circular dichroism method; assay type: nucleic-acid assay; details: Bos taurus
Albumin [19] = target: T1, Albumin; assay: Binding affinity to bovine serum albumin assessed as hypsochromic shift at 5 to 40 uM incubated for 10 mins by UV-Vis absorption spectroscopic method relative to control; assay type: ADME; details: cattle, isolated protein
Calf thymus DNA [20] = assay: Binding affinity to calf thymus DNA assessed as bathochromic shift at 30 uM incubated for 10 mins by UV-Vis absorption spectroscopic method; assay type: nucleic-acid assay; details: Bos taurus
Calf thymus DNA [21] = assay: Binding affinity to calf thymus DNA assessed as DNA spectral changes by measuring decrease in positive band at 274 nm at 30 uM incubated for 10 mins by circular dichroism method; assay type: nucleic-acid assay; details: Bos taurus

T1 sequence (P02769 whole entry): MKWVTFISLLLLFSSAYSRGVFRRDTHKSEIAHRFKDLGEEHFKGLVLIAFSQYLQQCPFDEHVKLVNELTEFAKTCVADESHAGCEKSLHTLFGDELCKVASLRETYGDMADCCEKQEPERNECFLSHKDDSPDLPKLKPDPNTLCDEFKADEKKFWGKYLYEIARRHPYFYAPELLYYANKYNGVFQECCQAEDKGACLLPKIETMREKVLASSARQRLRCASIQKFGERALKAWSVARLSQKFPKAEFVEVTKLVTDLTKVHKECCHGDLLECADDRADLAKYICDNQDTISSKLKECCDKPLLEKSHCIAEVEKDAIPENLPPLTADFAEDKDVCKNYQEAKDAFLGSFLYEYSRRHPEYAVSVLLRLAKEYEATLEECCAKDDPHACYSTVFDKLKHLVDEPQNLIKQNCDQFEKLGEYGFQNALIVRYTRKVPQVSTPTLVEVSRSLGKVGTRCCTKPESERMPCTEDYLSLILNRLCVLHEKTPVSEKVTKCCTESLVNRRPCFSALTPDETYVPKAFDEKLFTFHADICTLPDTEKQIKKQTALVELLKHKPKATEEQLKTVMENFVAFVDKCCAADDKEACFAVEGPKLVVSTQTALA
DNA topoisomerase 2-alpha (Homo sapiens), sequence (P11388 whole entry): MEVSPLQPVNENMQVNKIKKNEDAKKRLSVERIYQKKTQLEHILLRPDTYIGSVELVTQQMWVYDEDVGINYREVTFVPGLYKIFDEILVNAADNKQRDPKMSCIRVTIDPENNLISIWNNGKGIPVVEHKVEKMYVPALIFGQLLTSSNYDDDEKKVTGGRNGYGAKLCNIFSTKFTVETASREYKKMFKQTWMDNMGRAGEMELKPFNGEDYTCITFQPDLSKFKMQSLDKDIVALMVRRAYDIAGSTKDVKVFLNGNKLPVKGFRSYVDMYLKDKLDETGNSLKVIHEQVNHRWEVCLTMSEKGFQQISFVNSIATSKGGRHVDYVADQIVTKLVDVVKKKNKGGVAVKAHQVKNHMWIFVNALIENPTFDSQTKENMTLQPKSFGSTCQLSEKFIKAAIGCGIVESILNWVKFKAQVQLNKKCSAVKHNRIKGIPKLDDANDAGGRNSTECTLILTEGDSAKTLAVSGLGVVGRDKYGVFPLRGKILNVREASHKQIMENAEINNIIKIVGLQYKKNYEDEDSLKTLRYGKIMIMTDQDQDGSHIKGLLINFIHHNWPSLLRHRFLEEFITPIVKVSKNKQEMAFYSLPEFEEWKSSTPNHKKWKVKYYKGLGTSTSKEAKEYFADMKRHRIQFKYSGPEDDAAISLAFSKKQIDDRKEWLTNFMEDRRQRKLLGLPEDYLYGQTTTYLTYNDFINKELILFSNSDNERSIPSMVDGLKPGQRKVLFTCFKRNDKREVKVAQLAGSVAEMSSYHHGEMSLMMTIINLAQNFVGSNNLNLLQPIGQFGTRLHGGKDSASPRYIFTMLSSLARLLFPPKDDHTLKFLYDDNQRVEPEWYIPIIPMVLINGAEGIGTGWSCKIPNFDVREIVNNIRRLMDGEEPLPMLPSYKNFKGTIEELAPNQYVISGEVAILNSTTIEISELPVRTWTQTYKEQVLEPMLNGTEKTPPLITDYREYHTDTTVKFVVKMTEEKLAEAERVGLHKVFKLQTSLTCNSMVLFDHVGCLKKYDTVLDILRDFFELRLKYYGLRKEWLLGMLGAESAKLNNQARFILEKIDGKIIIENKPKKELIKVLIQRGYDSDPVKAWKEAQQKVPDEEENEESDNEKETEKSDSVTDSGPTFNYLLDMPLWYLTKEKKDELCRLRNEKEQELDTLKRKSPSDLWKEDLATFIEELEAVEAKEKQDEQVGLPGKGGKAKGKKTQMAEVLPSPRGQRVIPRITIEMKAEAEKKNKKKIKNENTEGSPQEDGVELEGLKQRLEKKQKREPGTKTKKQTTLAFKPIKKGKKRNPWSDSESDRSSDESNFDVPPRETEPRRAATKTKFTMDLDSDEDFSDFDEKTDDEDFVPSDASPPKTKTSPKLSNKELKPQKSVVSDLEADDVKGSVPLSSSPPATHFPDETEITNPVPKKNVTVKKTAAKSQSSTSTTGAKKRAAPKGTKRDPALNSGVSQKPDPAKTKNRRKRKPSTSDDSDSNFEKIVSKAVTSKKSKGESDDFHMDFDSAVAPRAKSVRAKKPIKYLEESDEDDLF

Row | SMILES | Activity (Calf thymus DNA [1]) | Activity (Salmon testes DNA) | Activity (Calf thymus DNA [2]) [%] | inhibition [3] | Activity (Albumin [4]) [%] | selectivity ratio [5] | Kb (Albumin [7]) | Activity (Albumin [8]) | Kb (Calf thymus DNA [9]) | Activity (Albumin [10]) [%] | KSV (Albumin [11]) [×10⁴ /M] | IC50 (T47D) [nM] | CC50 at 48 h [12] [nM] | selectivity ratio [13] | IC50 (MCF7) [nM] | fold change (FC) (Calf thymus DNA [14]) | Activity (Calf thymus DNA [15]) [%] | Activity (Calf thymus DNA [16]) | further results
1 | S=C(N/N=C\c1ccnc2ccccc12)Nc1cccnc1 | Active | Active | 20.3 | inactive | 493.41 | 83.3 | 8.03 ×10⁴ /M | Active | 1.96 ×10⁵ /M | 52.95 | 3.99 | 1100 | 91600 | 94.4 | 970 |  |  |  | fold change (FC) (Calf thymus DNA [6]): 0.89
2 | Fc1ccc(NC(=S)N/N=C\c2ccnc3ccccc23)cc1 | Active | Active |  | Active | 237.42 | 42.9 | 8.4 ×10⁴ /M | Active | 2.37 ×10⁵ /M | 38.74 | 5.9 | 1070 | 45900 | 41.7 | 1100 | 3.44 | 15.9 |  | 
3 | COc1ccc(NC(=S)N/N=C\c2ccnc3ccccc23)cc1 | Active | Active |  | Active | 320.04 | 74.6 | 5.44 ×10⁴ /M | Active | 1.33 ×10⁵ /M | 42.61 | 9.24 | 1360 | 101000 | 102 | 990 | 11.6 | 59.6 | Active | Activity (Calf thymus DNA [17]): Active
4 | COc1cc(NS(C)(=O)=O)ccc1Nc1c2ccccc2nc2ccccc12 [AMSACRINE] |  | Active |  | Active |  | 102 |  |  |  |  |  | 940 | 95500 | 105 | 910 |  |  |  | 
5 | S=C(N/N=C\c1ccnc2ccccc12)Nc1cccc2ccccc12 | Active | Active |  | Active | 226.14 | 18.6 | 1.13 ×10⁵ /M | Active | 2.54 ×10⁵ /M | 53.34 | 6.36 | 1210 | 22600 | 25.6 | 880 | 1.67 | 13.9 |  | 
6 | CNC(=O)c1cccc2c(Nc3ccc(NS(C)(=O)=O)cc3OC)c3cccc(C)c3nc12 [ASULACRINE] |  |  |  |  |  |  |  |  |  |  |  |  | 31200 |  |  |  |  |  | 
7 | CCc1ccc(NC(=S)N/N=C\c2ccnc3ccccc23)cc1 |  | Active |  | inactive | 601.57 | 27.9 | 1.43 ×10⁵ /M | Active | 1.62 ×10⁶ /M | 69.01 | 16.05 | 1280 | 35700 | 43.6 | 820 | 4.65 | 51.4 | Active | Activity (Calf thymus DNA [18]): Active; Activity (Albumin [19]): Active; Activity (Calf thymus DNA [20]): Active; Activity (Calf thymus DNA [21]): Active
8 | O=[N+]([O-])c1ccc(NC(=S)N/N=C\c2ccnc3ccccc23)cc1 | Active | Active | 12.9 | inactive | 132.77 | 62 | 1.03 ×10⁵ /M | Active | 2.51 ×10⁴ /M | 43.48 | 3.82 | 1330 | 82500 | 102 | 810 | 7.69 |  |  | Activity (Calf thymus DNA [17]): Active
9 | S=C(N/N=C\c1ccnc2ccccc12)Nc1ccc(Cl)cc1 | Active | Active | 8.51 | Active | 68.97 | 50 | 1.13 ×10⁵ /M | Active | 6.29 ×10⁴ /M | 53.34 | 6.07 | 1270 | 63500 | 59.3 | 1070 | 1.88 |  | Active | Activity (Calf thymus DNA [17]): Active
10 | S=C(NCCc1ccccc1)N/N=C\c1ccnc2ccccc12 | Active | Active | 27.4 | inactive | 157.14 | 29.4 | 1.08 ×10⁵ /M | Active | 2.42 ×10⁴ /M | 62.54 | 4.09 | 1120 | 33000 | 30.2 | 1090 | 5.53 |  |  | 
11 | S=C(N/N=C\c1ccnc2ccccc12)Nc1ccc(Br)cc1 | Active | Active | 10.8 | Active | 508.17 | 36.2 | 1.17 ×10⁵ /M | Active | 7.44 ×10⁴ /M | 56.43 | 11.2 | 1480 | 53500 | 54.1 | 990 | 6.06 |  |  | Activity (Calf thymus DNA [17]): Active
12 | C=CCNC(=S)N/N=C\c1ccnc2ccccc12 | Active | Active |  | Active | 371.21 | 85.5 | 1.44 ×10⁵ /M | Active | 3.98 ×10⁴ /M | 52.42 | 10.39 | 1230 | 105000 | 108 | 970 | 6.64 | 2.88 |  | Activity (Calf thymus DNA [20]): Active
13 | Cc1ccc(NC(=S)N/N=C\c2ccnc3ccccc23)cc1 | Active | Active |  | inactive | 287.44 | 38.3 | 1.39 ×10⁵ /M | Active | 3.56 ×10⁵ /M | 58.04 | 8.85 | 1320 | 50500 | 51.5 | 980 | 2.77 | 11.8 | Active | Activity (Calf thymus DNA [20]): Active
14 | S=C(N/N=C\c1ccnc2ccccc12)Nc1ccccc1 | Active | Active | 52.3 | Active | 33.65 | 85.5 | 7.29 ×10⁴ /M | Active | 3.5 ×10⁴ /M | 52.75 | 11.19 | 1380 | 118000 | 110 | 1070 | 3.72 |  | Active | 

Source: ChEMBL document CHEMBL4406827, “Novel 4-quinoline-thiosemicarbazone derivatives: Synthesis, antiproliferative activity, in vitro and in silico biomacromolecule interaction studies and topoisomerase inhibition” (Eur J Med Chem, 2019)
